Laboratory results: patent US20110059909A1, “METHODS FOR TREATING INFLAMMATORY DISORDERS” (priority 2004, published 2011)

Legend:
[1] = tested on: mice; conditions: cited from earlier work
[2] = tested on: primary cultured rat neocortical explants; conditions: cited from earlier work
[3] = tested on: primary cultured rat neocortical explants; conditions: cited from earlier work; remark: listed apart in the source
[4] = molecular target: T1, LacCer synthase (GalT-2) (Rattus norvegicus, UniProt O88419); test: Measurement of [14C]LacCer synthesis in primary astrocytes (HPTLC); assay type: cell-based; conditions: TNFα 1 ng/ml
T1 construct: using cell lysates derived from cells stimulated with LPS/IFNγ; endogenous in cells; host or cells: rat primary astrocytes
T1 sequence (O88419 1-382): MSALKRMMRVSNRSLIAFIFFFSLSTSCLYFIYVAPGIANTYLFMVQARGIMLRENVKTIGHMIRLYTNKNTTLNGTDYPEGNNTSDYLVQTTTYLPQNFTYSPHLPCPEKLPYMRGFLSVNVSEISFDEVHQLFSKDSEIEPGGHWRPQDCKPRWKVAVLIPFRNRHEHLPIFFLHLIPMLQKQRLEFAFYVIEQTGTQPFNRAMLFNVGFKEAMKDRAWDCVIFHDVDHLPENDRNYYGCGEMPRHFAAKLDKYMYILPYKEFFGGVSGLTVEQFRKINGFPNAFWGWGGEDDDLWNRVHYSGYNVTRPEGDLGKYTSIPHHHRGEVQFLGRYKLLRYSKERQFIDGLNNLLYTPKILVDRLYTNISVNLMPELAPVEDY
Procedure: Cultured cells were incubated in growth medium containing [^14C]galactose (5 μCi/ml) for 24 h as described previously. The medium was removed, and the cell monolayer was washed with sterile PBS. After the stimulation with LPS/IFNγ (1 μg/ml; 10 U/ml) for various durations, cells were then harvested and washed with ice cold PBS and lysed by sonication. 200 μg of protein was used for extraction of lipids using Chloroform:Methanol:HCl (100:100:1). The organic phase was dried under nitrogen. Glycosphingolipids were resolved by high performance thin layer chromatography using chloroform/methanol/0.25% KCl (70:30:4, v/v/v) as the developing solvent. The gel area corresponding to LacCer was scraped, and radioactivity was measured employing “liquiscint” (NEN Life Science Products) as a scintillating fluid.

[5] = tested on: small GTPase Ras; test: Quantification of Ras activation (GST-Raf-1 RBD pull-down) in primary astrocytes; assay type: cell-based, rat; conditions: pretreated 0.5 h, TNFα
Procedure: After stimulation, primary astrocytes in 6-well plates were washed with ice cold PBS and lysed in membrane lysis buffer (MLB; 0.5 ml of 25 mM HEPES, pH 7.5, 150 mM NaCl, 1% Igepal CA-630, 0.25% sodium deoxycholate, 10% glycerol, 10 mM MgCl2, 1 mM EDTA, 25 mM NaF, 1 mM of sodium orthovanadate, and EDTA free Complete™ protease inhibitor cocktail). After centrifugation (5,000×g) at 4° C. for 5 min, supernatant was used for Ras activation assay. One hundred μg of supernatant was used for binding with agarose conjugated Ras-binding domain (RBD) of Raf-1 which was expressed in BL21 (Invitrogen), Escherichia coli strain, transformed by pGEX-2T-GST-RBD in the presence of 0.1 mM of IPTG as described previously (Herrmann et al., 1995). The binding reaction was performed at 4° C. for 30 min in MLB. Following washing with MLB three times, Ras-RBD complex were denatured by adding of 2×SDS sample buffer. Ras protein was identified by western blot analysis with Ras antibodies from Upstate Biotechnology.

[6] = tested on: ERK1/2; test: ERK1/2 activation (phospho-ERK1/2 immunoblot) in primary astrocytes; assay type: cell-based, rat; conditions: pretreated 0.5 h, TNFα 20 min
Procedure: (§1) For iNOS protein, the cells were washed with cold Tris buffered saline (TBS; 20 mM Trizma base, and 137 mM NaCl, pH 7.5), lysed in 1×SDS sample loading buffer (62.5 mM Trizma base, 2% w/v SDS, 10% glycerol), following sonication and centrifugation at 15,000×g for 5 min, the supernatant was used for the iNOS western immunoblot assay. The protein concentration of samples was determined with the detergent compatible protein assay reagent (Bio-Rad Laboratories, CA) using bovine serum albumin (BSA) as the standard. Sample was boiled for 3 min with 0.1 volumes of 10% β-mercaptoethanol and 0.5% bromophenol blue mix. Fifty μg of total cellular protein was resolved by electrophoresis on 8 or 12% polyacrylamide gels, electro-transferred to polyvinylidene difluoride (PVDF) filter and blocked with Tween 20 containing Tris-buffered saline (TBST; 10 mM Trizma base-pH 7.4, 1% Tween 20, and 150 mM NaCl) with 5% skim milk. After incubation with antiserum against iNOS (BD PharMingen, CA), rat GalT-2 (Abjent Inc., CA), H-Ras (Upstate Biotechnology, CA), GFAP (Santa Cruz Biotech, CA), or phospho-specific ERK1/2 (Cell signaling Tech Inc., MA), or pIκ-B (Signal Transduction), in PVDF buffer for 2 h at room temperature, the filters were washed 3 times with TBST buffer and then incubated with horseradish peroxidase conjugated anti-rabbit or mouse IgG for 1 h. The membranes were detected by autoradiography using ECL-plus (Amersham Pharmacia Biotech) after washing with TBST buffer.

[7] = tested on: rat primary astrocytes; test: BrdU incorporation assay, proliferation of primary astrocytes; assay type: cell-based; conditions: pretreated 0.5 h (AS: 48 h after transfection), TNFα 1 ng/ml 18 h, BrdU incorporation
Procedure: Primary astrocyte-enriched cultures were prepared from the whole cortex of one day old Sprague-Dawley rats as described earlier (Pahan et al., 1998b). Briefly, the cortex was rapidly dissected in ice-cold calcium/magnesium free Hanks Balanced Salt Solution (HBSS) (Gibco, Grand Island, N.Y.) at pH 7.4 as described previously (Won et al., 2001). The tissue was then minced, incubated in HBSS containing trypsin (2 mg/ml) for 20 min and washed twice in plating medium containing 10% FBS and 10 μg/ml gentamicin, and then disrupted by triturating through a Pasteur pipette following which cells were seeded in 75-cm^2 culture flasks (Falcon, Franklin, N.J.). After incubation at 37° C. in 5% CO2 for 1 day, the medium was completely changed to the culture medium (DMEM containing 5% FBS and 10 μg/ml gentamicin). The cultures received half exchanges with fresh medium twice a week. After 14-15 days the cells were shaken for at least 24 h on an orbital shaker to remove the microglia and then seeded on multi-well tissue culture dishes. The cells were incubated with serum-free DMEM for 24 h prior to the incubation with drugs.
Proliferation of primary astrocytes was assayed by using the Cell proliferation ELISA, BrdU colorimetric assay kit (Roche, Germany) according to manufacturer's protocol. Briefly, cells were seeded in 96 well plates in quadruplicate and following overnight serum starvation were stimulated with mitogenic stimulants. 2 h before termination of proliferation assay, BrdU (10 μM) was added to each well following which cells were fixed and levels of incorporated BrdU were assayed by using a conjugated anti-BrdU enzyme. Colorimetric analysis was done by measuring absorbance at 370 nm using a spectramax MAX 190 (Molecular devices) multi-well plate reading spectrophotometer.

[8] = tested on: GFAP; test: GFAP mRNA (real time PCR) and protein (immunoblot) in TNFα-stimulated primary astrocytes; assay type: cell-based, rat; conditions: TNFα 1 ng/ml; mRNA 8 h, protein 18 h
Procedure: as §1

[9] = tested on: GalT-2; test: GalT-2 activity assay on cell lysates; assay type: cell-based, rat; conditions: LY pretreatment
Procedure: The activity of GalT-2 was measured using [^3H]UDP-galactose as the galactose donor and GlcCer as the acceptor as described previously (Yeh et al., 2001). Briefly, cells were harvested in PBS and cell pellets were suspended in Triton X-100 lysis buffer. Cell lysates were sonicated and following protein quantification, 100 μg of cell lysate was added to reaction mixture containing […] of cacodylate buffer (pH 6.8), 1 mM Mn/Mg, 0.2 mg/ml Triton X-100 (1:2 v/v), 30 nmol of GluCer and […] of UDP-[^3H]galactose in a total volume of 100 μl. The reaction was terminated by adding 10 μl of 0.25M EDTA, 10 μl of 0.5M KCl and 500 μl of Chloroform/Methanol (2:1 v/v) and the products were separated by centrifugation. The lower phase was collected and dried under nitrogen. Following resolution on HPTLC plates, the gel was cut out and radioactivity was measured in a scintillation counter. Assay without exogenous GluCer served as blank and their radioactivity counts were subtracted from all respective data points.

[10] = tested on: X-ALD patients; conditions: cited from earlier work

For `CCCCCCCCCC(=O)N[C@@H](CN1CCOCC1)[C@@H](O)c1ccccc1` [L-threo PDMP], the “LD50 values, L-threo PDMP compared to D-threo PDMP” value [1] is listed as “higher”, the Neurite outgrowth [2] is listed as “stimulated” and the GSL biosynthesis [3] is listed as “stimulated”.
In the case of `O=c1cc(N2CCOCC2)oc2c(-c3ccccc3)cccc12` [LY, 2-(4-Morpholinyl)-8-phenyl-4H-1-benzopyran-4-one], the “[14C]LacCer synthesis upon TNFα-stimulation” value [4] was “inhibited”, the “TNFα-induced Ras activation” value [5] was “inhibited” and the “TNFα-induced ERK1/2 phosphorylation” value [6] was “inhibited”. For the same compound, the TNFα-induced astrocyte proliferation [7] was “significantly attenuated”, the “TNFα-induced GFAP mRNA and protein expression” value [8] was “inhibited” and the “TNFα-induced GalT-2 activation” value [9] was “inhibition”.
For `CCCCCCCC/C=C\CCCCCCCC(=O)OCC(COC(=O)CCCCCCC/C=C\CCCCCCCC)OC(=O)CCCCCCC/C=C\CCCCCCCC` [trioleate], the “Reduction of VLCFA” value [10] is listed as 50%.
